Results taken from US20250367218A1, “METHODS OF TREATING METABOLIC DISORDERS AND COMBINATION PRODUCTS FOR USE IN THE SAME” (INSTITUT PASTEUR DE MONTEVIDEO, priority 2024, published 2025).

Assays:
[1] = Body weight of obese mice fed a high-fat diet (HFD) during treatment; format: in vivo, C57BL/6J mice
Protocol: (§1) All studies conducted in mice utilized C57BL/6J mice maintained at the Institut Pasteur de Montevideo Animal facility (UBAL). Experimental protocols were approved by the Institutional Animal Care and Use Committee of the Institut Pasteur de Montevideo (CEUA, Protocol numbers 003-19 and 006-19). Studies were performed according to the methods approved in the protocols. All the experiments were performed on adult male mice (10-12 weeks of age) and were conducted at either 22° C. with free access to food and water. Unless specified, mice were housed at 22° C. in groups of five.
(§2) High-fat diet (HFD) feeding: Male C57BL/6J mice housed at 22° C. were fed a high-fat diet (42% fat and 0.25% cholesterol, AlN93G, LabDiet, USA), starting at 12 weeks of age and for a duration of 5 weeks prior to beginning administration of any active pharmaceutical ingredients. After the onset of the treatment, HFD ad libitum was maintained until the end of the experiments.
Drug delivery: SANA was administered orally (PO) by mixing with the food (50, 100, or 200 mg/kg/day), or subcutaneously (SC, 10, 15, or 20 mg/kg/day in 100 mM phosphate buffer, pH 6.5). In all cases the vehicle was used as control. Liraglutide (Novo Nordisk, Denmark) was administered daily, subcutaneously (SC, 0.2 mg/kg/day). Semaglutide (Ozempic®, Novo Nordisk, Denmark) was administered subcutaneously (SC, 2 nmol/kg/day or 40 mg/kg every 3 days).
Mice were fed with a high fat diet (HFD) for 5 weeks prior to the initiation of treatment, and the high-fat diet continued during a 2-week treatment period. FIGS. 1A-1B show graphs of average mouse weight without treatment (HFD, n=8), treatment with SANA (HFD+SANA, 200 mg/kg/day, n=9), treatment with liraglutide (HFD+LIRA, 0.2 mg/kg/day, n=8), or treatment with a combination of SANA (200 mg/kg/day) and liraglutide (0.2 mg/kg/day) (HFD+SANA+LIRA, n=10).
FIGS. 3A and 3B show graphs of the average mouse weight without treatment (n=9), treatment with SANA (15 mg/kg/day, n=8), treatment with semaglutide (2 nmol/kg/day, n=10), or treatment with a combination of SANA (15 mg/kg/day) and semaglutide (2 nmol/kg/day) (n=10). Mice were fed with a high fat diet (HFD) for 5.5 weeks prior to the initiation of treatment, and the high-fat diet continued during the 3-week treatment period. Referring to FIGS. 3A and 3B, obese mice administered SANA alone (HFD+SANA) or semaglutide alone (HFD+SEMA) experienced an average weight loss of about 5% after three weeks.
In a separate experiment, different doses of subcutaneous semaglutide alone were compared to treatment with oral administration of SANA alone, and to treatment with a combination of oral SANA and two different doses of subcutaneous semaglutide. […]

[2] = cited from earlier work
[3] = Blood glucose measurements: fasting/basal glucose and glucose tolerance test (GTT) in HFD mice; format: in vivo, C57BL/6J mice; conditions: SANA 200 mg/kg/day PO after discontinuation of concomitant SANA plus semaglutide, versus semaglutide 10 nmol/kg/day alone; FIGS. 6E, 6F
Protocol: Blood glucose measurements: Mice were kept in fasting for 16 h before fasting glucose measurement and glucose tolerance tests (GTT). When performing GTT, mice were injected (IP) with 1.5 g/kg body weight of glucose solution. Plasma glucose concentrations were measured from blood obtained from the tail using a hand-held glucometer (Accu-Chek, Roche).
Glucose tolerance (“GTT”), basal glucose, and glucose Area Under the Curve (“AUC”) were also measured following two weeks of treatment, and the results are presented graphically in FIGS. 2A, 2B, and 2C with * indicating a statistically significant difference, p<0.05.
A higher dose of SANA was then assessed for its ability to prevent the regain of weight in mice following discontinuation of GLP-1 treatment. Referring to FIGS. 6B and 6C, mice were fed a high-fat diet for a period of 5.5 weeks, and then were untreated (HFD), treated with GLP-1 agonist (semaglutide, 10 nmol/kg/day—SC), or treated with semaglutide+SANA for a period of 1.5 weeks, at which time, the semaglutide treatment was ceased and the groups were treated only with SANA (200 mg/kg/day, PO). The weight regain of the mice was monitored for another 1.5-6.5 weeks. *, **, ***, #, and ## show statistically significant differences, p<0.05, p<0.01, p<0.001, p<0.05, and p<0.01, respectively. […]

[4] = Cumulative food intake of mice fed a high-fat diet (HFD); format: in vivo, C57BL/6J mice; conditions: SANA 200 mg/kg/day PO continued after 1.5 weeks of concomitant SANA plus semaglutide 10 nmol/kg/day; FIG. 6D
Protocol: as §1
as §2, with “experiments. […]” for “experiments.”
A higher dose of SANA was then assessed for its ability to prevent the regain of weight in mice following discontinuation of GLP-1 treatment. […] The weight regain of the mice was monitored for another 1.5-6.5 weeks. *, **, ***, #, and ## show statistically significant differences, p<0.05, p<0.01, p<0.001, p<0.05, and p<0.01, respectively. […]

[5] = Weight regain of HFD mice after discontinuation of treatment (rebound effect); format: in vivo, C57BL/6J mice
Protocol: Comparison of weight regain in mice following discontinuation of treatment with SANA or a GLP-1 agonist was measured in order to quantify the “rebound effect” as a result of discontinuing treatment. Mice were fed a high-fat diet for a period of 5 weeks, and were then untreated (HFD), treated with GLP-1 agonist (liraglutide, 0.2 mg/kg/day SC daily injection, LIRA), or treated with SANA (200 mg/kg/day PO) for a period of nine weeks. The high-fat diet was continued during the treatment period. Following week 9, all treatment was discontinued and weight regain in the mice was monitored through week 14.
The ability of SANA to prevent the regain of weight in mice following discontinuation of GLP-1 treatment was also assessed. Mice were fed a high-fat diet for a period of 5.5 weeks, and were then untreated (HFD), treated with GLP-1 agonist (semaglutide, 40 mg/kg s.c. every 3 days), or treated with semaglutide+SANA (10 mg/kg/day) for a period of 2.5 weeks. At week 8, except for the control group (HFD) all groups were treated only with SANA (10 mg/kg/day, s.c.).
A higher dose of SANA was then assessed for its ability to prevent the regain of weight in mice following discontinuation of GLP-1 treatment. […] The weight regain of the mice was monitored for another 1.5-6.5 weeks. *, **, ***, #, and ## show statistically significant differences, p<0.05, p<0.01, p<0.001, p<0.05, and p<0.01, respectively.

[6] = Serum non-esterified fatty acids (NEFA) in HFD mice; format: in vivo, C57BL/6J mice; conditions: 4 weeks; SANA 200 mg/kg/day, semaglutide 2 nmol/kg/day, alone or combined; FIG. 7B
Protocol: As described in Example 2A above, mice were fed with a high fat diet (HFD) for 5.5 weeks prior to the initiation of treatment, and the high-fat diet continued during the 4 week treatment period. Different doses of semaglutide were provided, either alone or in combination with SANA, and compared to SANA alone and untreated mice alone. Specifically, mice were either untreated (HFD) (n=5), or treated with SANA (200 mg/kg/day, n=5), semaglutide (0.25 nmol/kg/day, n=5), semaglutide (2 nmol/kg/day, n=4), a combination of SANA (200 mg/kg/day) and semaglutide (0.25 nmol/kg/day) (n=5), or a combination of SANA (200 mg/kg/day) and semaglutide (2 nmol/kg/day) (n=3).
Next, different doses of SANA were tested, either alone or in combination with semaglutide, and compared to treatment with semaglutide alone and untreated mice. Specifically, as described in Example 2A above, mice were fed with a high fat diet (HFD) for 5.5 weeks prior to the initiation of treatment, and the high-fat diet continued during the 1.5-week treatment period. […]

[7] = obese mice treated with SANA, WO2020058917A1 / US2023346728A1

O=C(O)c1cc(/C=C/[N+](=O)[O-])ccc1O [SANA, 5-(2-nitroethenyl) salicylic acid]
average reduction in weight during the treatment period ([1]; HFD mice, nine weeks, liraglutide 0.2 mg/kg/day SC or SANA 200 mg/kg/day PO, FIG. 5): 15% | average weight loss ([1]; obese HFD mice, after four weeks, oral SANA 200 mg/kg/day, subcutaneous semaglutide 2 nmol/kg/day, alone or concomitant, FIGS. 3E, 3F): about 5% | average weight loss ([1]; obese HFD mice, after three weeks, SANA 15 mg/kg/day, semaglutide 2 nmol/kg/day, alone or concomitant, FIGS. 3A, 3B): about 5% | weight loss ([1]; obese HFD mice, after two weeks, SANA 200 mg/kg/day, liraglutide 0.2 mg/kg/day, alone or concomitant, FIGS. 1A, 1B): about 10% | thermogenesis and beiging of white adipose tissue ([2]; mice under diet-induced obesity (DIO), by activating creatine-dependent thermogenesis): stimulates thermogenesis and beiging of white adipose tissue | fat accretion [2, 7]: resistance to fat accretion | glucose intolerance [2, 7]: improved glucose intolerance | liver steatosis [2, 7]: absence of liver steatosis | response to cold challenge [2, 7]: improved response to cold challenge | fasting glucose, lower [3]: 55% | cumulative food intake after discontinuation of semaglutide [4]: remained lower | regain of weight after discontinuation of semaglutide ([5]; SANA 10 mg/kg/day s.c. after 2.5 weeks of semaglutide (40 mg/kg s.c. every 3 days) alone or SANA plus semaglutide, FIG. 6A): prevented regain of weight | regain of weight after discontinuation of semaglutide ([5]; SANA 200 mg/kg/day PO after 1.5 weeks of semaglutide (10 nmol/kg/day SC) alone or SANA plus semaglutide, FIGS. 6B, 6C): prevented regain of weight | drop in serum NEFA levels [6]: little to no change
